IC50 data for 22 compounds are collected here from patent publication US7994172B2, “[1H-pyrazolo[3, 4-D]pyrimidin-4-yl]-piperidine or -piperazine compounds as serine-theoronine kinase modulators (P70s6k, Atk1 and Atk2) for the treatment of immunological, inflammatory and proliferative diseases” (Exelixis, Inc., priority 2004, dated 2011).

pIC50: −log10 of the molar value.

The target of experiment [1] is T1, human p70S6 kinase (p70S6K, kinase domain residues 1-421, T412E mutation) (Homo sapiens, UniProt P23443, T412E).
T1 construct: human p70S6 kinase domainresidues 1-421, containing a T412E mutation; made in house
T1 sequence (P23443 1-421 T412E): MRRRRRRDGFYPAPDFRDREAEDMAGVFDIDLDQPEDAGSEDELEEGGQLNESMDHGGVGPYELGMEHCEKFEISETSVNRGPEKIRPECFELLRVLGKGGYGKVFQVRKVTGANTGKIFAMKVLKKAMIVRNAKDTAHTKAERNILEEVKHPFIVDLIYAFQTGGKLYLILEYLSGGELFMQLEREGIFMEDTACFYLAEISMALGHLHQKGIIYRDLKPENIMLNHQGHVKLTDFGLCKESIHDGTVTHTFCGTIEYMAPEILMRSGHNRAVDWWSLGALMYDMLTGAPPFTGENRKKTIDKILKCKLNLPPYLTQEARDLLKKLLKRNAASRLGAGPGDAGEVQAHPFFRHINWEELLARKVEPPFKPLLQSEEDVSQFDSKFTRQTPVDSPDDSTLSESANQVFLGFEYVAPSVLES
The experiment is described as follows: p70S6 kinase assay, Luciferase-Coupled Chemiluminescent Kinase assay (LCCA). Format: biochemical. Particulars: 5 μM ATP, 12 nM p70S6K; read-out: p70S6K inhibition IC50. The protocol:
(§1) Kinase activity and compound inhibition are investigated using one or more of the three assay formats described below. The ATP concentrations for each assay are selected to be close to the Michaelis-Menten constant (KM) for each individual kinase. Dose-response experiments are performed at 10 different inhibitor concentrations in a 384-well plate format. The data are fitted to four-parameter equation (2) below; where Y is the observed signal, X is the inhibitor concentration, Min is the background signal in the absence of enzyme (0% enzyme activity), Max is the signal in the absence of inhibitor (100% enzyme activity), IC50 is the inhibitor concentration at 50% enzyme inhibition and H represents the empirical Hill's slope to measure the cooperativity. Typically H is close to unity. Y=Min+(Max−Min)/(1+(X/IC50)^H) Equation (2) p70S6 Kinase Assay
Biochemical activity of p70S6 kinase was assessed using a Luciferase-Coupled Chemiluminescent Kinase assay (LCCA) format. Kinase activity was measured as the percent ATP remaining following the kinase reaction. Remaining ATP was detected by luciferase-luciferin-coupled chemiluminescence. Specifically, the reaction was initiated by mixing test compounds, 5 μM ATP, 5 μM RRRLSSLRA peptide and 12 nM p70S6K (baculovirus expressed human p70S6 kinase domainresidues 1-421, containing a T412E mutation) in a 20 uL assay buffer (20 mM Tris-HCL pH 7.5, 10 mM MgCl2, 0.02% Triton X-100, 100 mM DTT, 2 mM MnCl2). The mixture is incubated at ambient temperature for 2 hours after which 20 μL luciferase-luciferin mix is added and the chemiluminescent signal read using a Wallac Victor^2 reader. The luciferase-luciferin mix consists of 50 mM HEPES, pH 7.8, 8.5 μg/mL oxalic acid (pH 7.8), 5 (or 50) mM DTT, 0.4% Triton X-100, 0.25 mg/mL coenzyme A, 63 uM AMP, 28 μg/mL luciferin and 40,000 units/mL luciferase.

Experiment [2] concerns the target T2, human Akt1 kinase (kinase domain residues R144-A480, activated with PDK1) (Homo sapiens, UniProt P31749).
T2 construct: made in house
As to the kind of experiment: Akt1 kinase assay, Luciferase-Coupled Chemiluminescent Kinase assay (LCCA). It counts as biochemical. To be noted: 1 μM ATP, 1.3 nM Akt1; read-out: Akt-1 inhibition IC50. The protocol: as §1
Biochemical activity of Akt1 kinase was assessed using a Luciferase-Coupled Chemiluminescent Kinase assay (LCCA) format. Kinase activity was measured as the percent ATP remaining following the kinase reaction. Remaining ATP was detected by luciferase-luciferin-coupled chemiluminescence. Specifically, the reaction was initiated by mixing test compounds, 1 μM ATP, 5 μM crosstide peptide and 1.3 nM Akt1 (baculovirus expressed human Akt1 kinase domain residues R144-A480, activated with PDK1) in a 20 uL assay buffer (20 mM Tris-HCL pH 7.5, 10 mM MgCl2, 0.01% Triton X-100, 1 mM DTT, 3 mM MnCl2). The mixture is incubated at ambient temperature for 3 hours after which 20 μL luciferase-luciferin mix is added and the chemiluminescent signal read using a Wallac Victor2 reader. The luciferase-luciferin mix consists of 50 mM HEPES, pH 7.8, 8.5 μg/mL oxalic acid (pH 7.8), 5 (or 50) mM DTT, 0.4% Triton X-100, 0.25 mg/mL coenzyme A, 63 uM AMP, 28 μg/mL luciferin and 40,000 units/mL luciferase.

T2 sequence (P31749 144-480): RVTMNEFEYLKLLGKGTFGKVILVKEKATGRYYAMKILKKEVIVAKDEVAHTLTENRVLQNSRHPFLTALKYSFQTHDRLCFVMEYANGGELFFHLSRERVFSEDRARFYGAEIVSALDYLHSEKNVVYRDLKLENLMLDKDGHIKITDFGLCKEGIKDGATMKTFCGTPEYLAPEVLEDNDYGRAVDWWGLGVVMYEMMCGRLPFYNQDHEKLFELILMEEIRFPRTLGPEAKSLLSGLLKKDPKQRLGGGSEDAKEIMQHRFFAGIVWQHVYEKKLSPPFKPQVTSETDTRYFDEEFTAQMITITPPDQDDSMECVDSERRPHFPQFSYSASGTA

A word on the pIC50: it is the IC50 on a negative log10 scale, so that one unit is a factor of ten. For the compound `OC(c1ccc2cc[nH]c2c1)N1CCN(c2ncnc3[nH]nc(Br)c23)CC1` (centres unmarked) [Entry 99, [4-(3-bromo-1H-pyrazolo[3,4-d]pyrimidin-4-yl)piperazin-1-yl](1H-indol-6-yl)methanol], the negative-log IC50 (pIC50) in experiment [1] is 6.30 to 7.30; in experiment [2], 5.70 to 6.30.
Taken in the same sequence, the figures for `CCN(CC)CCCNC(=O)C1(c2ccc(Cl)cc2)CCN(c2ncnc3[nH]nc(Br)c23)CC1` [Entry 49, 1-(3-bromo-1H-pyrazolo[3,4-d]pyrimidin-4-yl)-4-(4-chlorophenyl)-N-[3-(diethylamino)propyl]piperidine-4-carboxamide] were above 7.30 and 5.70 to 6.30.
In the case of `O=C(c1ccc(F)cc1)C1CCN(c2ncnc3[nH]nc(Br)c23)CC1` [Entry 20, [1-(3-bromo-1H-pyrazolo[3,4-d]pyrimidin-4-yl)piperidin-4-yl](4-fluorophenyl)methanone], the negative logarithm of the IC50 (pIC50) in experiment [1] and in experiment [2] was above 7.30 each time.
Turning to `OCC1CN(c2ncnc3[nH]nc(Br)c23)CCN1Cc1ccc(Cl)cc1` (centres unmarked) [Entry 5, {4-(3-bromo-1H-pyrazolo[3,4-d]pyrimidin-4-yl)-1-[(4-chlorophenyl)methyl]piperazin-2-yl}methanol], the negative logarithm of the IC50 (pIC50) in experiment [1] is above 7.30; in experiment [2] it was 6.30 to 7.30.
Taken in the same sequence, the figures for `Clc1ccc([C@H](OCCN2CCCC2)C2CCN(c3ncnc4[nH]nc(Br)c34)CC2)cc1` [Entry 90, 3-bromo-4-(4-{(R)-(4-chlorophenyl)[(2-pyrrolidin-1-ylethyl)oxy]methyl}piperidin-1-yl)-1H-pyrazolo[3,4-d]pyrimidine] were above 7.30 and above 7.30.
Taken in the same sequence, the figures for `Fc1cc(C(F)(F)F)ccc1CN1CCN(c2ncnc3[nH]nc(Br)c23)CC1` [Entry 23, 3-bromo-4-(4-{[2-fluoro-4-(trifluoromethyl)phenyl]methyl}piperazin-1-yl)-1H-pyrazolo[3,4-d]pyrimidine] were above 7.30 and 6.30 to 7.30.
Consider `CN(C)CCNC(=O)C(=O)N(c1ccc(Cl)cc1)C1CCN(c2ncnc3[nH]nc(Br)c23)CC1` [Entry 28, N-[1-(3-bromo-1H-pyrazolo[3,4-d]pyrimidin-4-yl)piperidin-4-yl]-N-(4-chlorophenyl)-N′-[2-(dimethylamino)ethyl]ethanediamide], for which the negative logarithm of the IC50 (pIC50) in experiment [1] and in experiment [2] was above 7.30 throughout.
Regarding `CN(C)CCOC(=O)N(c1ccc(Cl)cc1)C1CCN(c2ncnc3[nH]nc(Br)c23)CC1` [Entry 15, 2-(dimethylamino)ethyl [1-(3-bromo-1H-pyrazolo[3,4-d]pyrimidin-4-yl)piperidin-4-yl](4-chlorophenyl)carbamate], the pIC50 in experiment [1] and in experiment [2] was above 7.30 throughout.
For `CN(C)CCO[C@@H](c1ccc(Cl)cc1)C1CCN(c2ncnc3[nH]nc(Br)c23)CC1` [Entry 86, 2-{[(R)-[1-(3-bromo-1H-pyrazolo[3,4-d]pyrimidin-4-yl)piperidin-4-yl](4-chlorophenyl)methyl]oxy}-N,N-dimethylethanamine], the negative logarithm of the IC50 (pIC50) in experiment [1] and in experiment [2] was above 7.30 throughout.
As for `OC(c1ccc(F)cc1)C1CCN(c2ncnc3[nH]nc(Br)c23)CC1` (centres unmarked) [Entry 22, [1-(3-bromo-1H-pyrazolo[3,4-d]pyrimidin-4-yl)piperidin-4-yl](4-fluorophenyl)methanol], the pIC50 in experiment [1] was above 7.30; in experiment [2], 6.30 to 7.30.
Taken in the same sequence, the figures for `CCN(CC)CCN(c1ccc(Cl)cc1)C1CCN(c2ncnc3[nH]nc(Br)c23)CC1` [Entry 18, N-[1-(3-bromo-1H-pyrazolo[3,4-d]pyrimidin-4-yl)piperidin-4-yl]-N-(4-chlorophenyl)-N′,N′-diethylethane-1,2-diamine] were above 7.30 and above 7.30.
With `Clc1ccc(CC2CCN(c3ncnc4[nH]nc(Br)c34)CC2)cc1Cl` [Entry 40, 3-bromo-4-{4-[(3,4-dichlorophenyl)methyl]piperidin-1-yl}-1H-pyrazolo[3,4-d]pyrimidine], the values for the negative-log IC50 (pIC50) in experiment [1] and in experiment [2] were above 7.30 and below 5.70, respectively.
Taken in the same sequence, the figures for `CCc1n[nH]c2ncnc(N3CCC([C@@H](OCCN(C)C)c4ccc(Cl)cc4)CC3)c12` [Entry 88, 2-({(R)-(4-chlorophenyl)[1-(3-ethyl-1H-pyrazolo[3,4-d]pyrimidin-4-yl)piperidin-4-yl]methyl}oxy)-N,N-dimethylethanamine] were above 7.30 and above 7.30.
Taken in the same sequence, the figures for `C=CCCC(=O)N(c1ccc(Cl)cc1)C1CCN(c2ncnc3[nH]nc(Br)c23)CC1` [Entry 35, N-[1-(3-bromo-1H-pyrazolo[3,4-d]pyrimidin-4-yl)piperidin-4-yl]-N-(4-chlorophenyl)pent-4-enamide] were above 7.30 and 6.30 to 7.30.
Taken in the same sequence, the figures for `CN(C)CCOC(c1ccc(F)cc1)C1CCN(c2ncnc3[nH]nc(Br)c23)CC1` (centres unmarked) [Entry 25, 2-{[[1-(3-bromo-1H-pyrazolo[3,4-d]pyrimidin-4-yl)piperidin-4-yl](4-fluorophenyl)methyl]oxy}-N,N-dimethylethanamine] were above 7.30 and above 7.30.
`Fc1cc(Cl)ccc1CN1CCN(c2ncnc3[nH]nc(Br)c23)CC1` [Entry 17, 3-bromo-4-{4-[(4-chloro-2-fluorophenyl)methyl]piperazin-1-yl}-1H-pyrazolo[3,4-d]pyrimidine]: the negative-log IC50 (pIC50) in experiment [1] is above 7.30; in experiment [2] it was 6.30 to 7.30.
Take `CN(Cc1ccccn1)C(c1ccc(F)cc1)C1CCN(c2ncnc3[nH]nc(Br)c23)CC1` (centres unmarked) [Entry 97, 1-[1-(3-bromo-1H-pyrazolo[3,4-d]pyrimidin-4-yl)piperidin-4-yl]-1-(4-fluorophenyl)-N-methyl-N-(pyridin-2-ylmethyl)methanamine]: the negative-log IC50 (pIC50) is 6.30 to 7.30 in experiment [1] and 5.70 to 6.30 in experiment [2].
Taken in the same sequence, the figures for `CN(Cc1ccco1)C(c1ccc(F)cc1)C1CCN(c2ncnc3[nH]nc(Br)c23)CC1` (centres unmarked) [Entry 96, 1-[1-(3-bromo-1H-pyrazolo[3,4-d]pyrimidin-4-yl)piperidin-4-yl]-1-(4-fluorophenyl)-N-(furan-2-ylmethyl)-N-methylmethanamine] were 6.30 to 7.30 and 5.70 to 6.30.
Taken in the same sequence, the figures for `CN(C)CCCC(O)(c1ccc(Cl)cc1)C1CCN(c2ncnc3[nH]nc(Br)c23)CC1` (centres unmarked) [Entry 91, 1-[1-(3-bromo-1H-pyrazolo[3,4-d]pyrimidin-4-yl)piperidin-4-yl]-1-(4-chlorophenyl)-4-(dimethylamino)butan-1-ol] were above 7.30 and above 7.30.
Taken in the same sequence, the figures for `Clc1cc(CN2CCN(c3ncnc4[nH]nc(Br)c34)CC2)ccc1OCc1ccccc1` [Entry 80, 3-bromo-4-[4-({3-chloro-4-[(phenylmethyl)oxy]phenyl}methyl)piperazin-1-yl]-1H-pyrazolo[3,4-d]pyrimidine] were below 5.70 and below 5.70.
In the case of `CCN(CC)CCN(C)C(c1ccc(Cl)cc1)C1CCN(c2ncnc3[nH]nc(Br)c23)CC1` (centres unmarked) [Entry 21, N-[[1-(3-bromo-1H-pyrazolo[3,4-d]pyrimidin-4-yl)piperidin-4-yl](4-chlorophenyl)methyl]-N′,N′-diethyl-N-methylethane-1,2-diamine], the pIC50 in experiment [1] and in experiment [2] was above 7.30 each time.
`O=[N+]([O-])c1cc(CN2CCN(c3ncnc4[nH]nc(Br)c34)CC2)ccc1Oc1ccc(Cl)cc1` [Entry 84, 3-bromo-4-[4-({4-[(4-chlorophenyl)oxy]-3-nitrophenyl}methyl)piperazin-1-yl]-1H-pyrazolo[3,4-d]pyrimidine]: the pIC50 in experiment [1] and in experiment [2] was below 5.70 in each case.
